Experimental data as given in ChEMBL document CHEMBL1154822, “Synthesis and antiproliferative activity of 7-azaindirubin-3'-oxime, a 7-aza isostere of the natural indirubin pharmacophore” (J Nat Prod, 2009).

Key:
[1] = tested on: 786-0; experiment: Cytotoxicity against human 786-0 cells assessed as cell growth at 10 uM after 48 hrs by MTT assay; format: functional; conditions: 786-0, 48 h, read-out: Activity
[2] = tested on: A498; experiment: Cytotoxicity against human A498 cells assessed as cell growth at 10 uM after 48 hrs by MTT assay; format: functional; conditions: A498, 48 h, read-out: Activity
[3] = tested on: TK-10; experiment: Cytotoxicity against human TK10 cells assessed as cell growth at 10 uM after 48 hrs by MTT assay; format: functional; conditions: TK-10, 48 h, read-out: Activity
[4] = tested on: OVCAR-3; experiment: Cytotoxicity against human OVCAR-3 cells assessed as cell growth at 1 uM after 1 to 11 days by MTT assay; format: functional; conditions: read-out: Activity
[5] = tested on: NCI/ADR-RES; experiment: Cytotoxicity against human NCI/ADR-RES cells assessed as cell growth at 1 uM after 1 to 11 days by MTT assay; format: functional; conditions: read-out: Activity
[6] = tested on: HCT-116; experiment: Cytotoxicity against human HCT116 cells assessed as cell growth at 100 uM after 1 to 11 days by MTT assay; format: functional; conditions: read-out: Activity
[7] = tested on: K562; experiment: Cytotoxicity against human K562 cells assessed as cell growth at 1 mM after 1 to 11 days by MTT assay; format: functional; conditions: read-out: Activity
[8] = tested on: SR; experiment: Cytotoxicity against human SR cells assessed as cell growth at 1 mM after 1 to 11 days by MTT assay; format: functional; conditions: read-out: Activity
[9] = tested on: NCI-H522; experiment: Cytotoxicity against human NCI-H522 cells assessed as cell growth at 1 mM after 1 to 11 days by MTT assay; format: functional; conditions: read-out: Activity
[10] = tested on: EKVX; experiment: Cytotoxicity against human EKVX cells assessed as cell growth at 10 uM after 48 hrs by MTT assay; format: functional; conditions: read-out: Activity
[11] = tested on: HOP-92; experiment: Cytotoxicity against human HOP92 cells assessed as cell growth at 10 uM after 48 hrs by MTT assay; format: functional; conditions: HOP-92, 48 h, read-out: Activity
[12] = tested on: NCI-H322M; experiment: Cytotoxicity against human NCI-H322M cells assessed as cell growth at 10 uM after 48 hrs by MTT assay; format: functional; conditions: read-out: Activity
[13] = tested on: NCI-H460; experiment: Cytotoxicity against human NCI-H460 cells assessed as cell growth at 10 uM after 48 hrs by MTT assay; format: functional; conditions: NCI-H460, 48 h, read-out: Activity
[14] = tested on: HCT-116; experiment: Cytotoxicity against human HCT116 cells assessed as cell growth at 10 uM after 48 hrs by MTT assay; format: functional; conditions: HCT-116, 48 h, read-out: Activity
[15] = tested on: MCF7; experiment: Cytotoxicity against human MCF7 cells assessed as cell growth at 10 uM after 48 hrs by MTT assay; format: functional; conditions: MCF7, 48 h, read-out: Activity
[16] = tested on: MDA-MB-435; experiment: Cytotoxicity against human MDA-MB-435 cells assessed as cell growth at 10 uM after 48 hrs by MTT assay; format: functional; conditions: MDA-MB-435, 48 h, read-out: Activity
[17] = tested on: NCI/ADR-RES; experiment: Cytotoxicity against human NCI/ADR-RES cells assessed as cell growth at 10 uM after 48 hrs by MTT assay; format: functional; conditions: read-out: Activity
[18] = tested on: T47D; experiment: Cytotoxicity against human T47D cells assessed as cell growth at 10 uM after 48 hrs by MTT assay; format: functional; conditions: read-out: Activity
[19] = tested on: OVCAR-3; experiment: Cytotoxicity against human OVCAR-3 cells assessed as cell growth at 10 uM after 48 hrs by MTT assay; format: functional; conditions: OVCAR-3, 48 h, read-out: Activity
[20] = tested on: OVCAR-5; experiment: Cytotoxicity against human OVCAR5 cells assessed as cell growth at 10 uM after 48 hrs by MTT assay; format: functional; conditions: OVCAR-5, 48 h, read-out: Activity
[21] = tested on: OVCAR-8; experiment: Cytotoxicity against human OVCAR8 cells assessed as cell growth at 10 uM after 48 hrs by MTT assay; format: functional; conditions: OVCAR-8, 48 h, read-out: Activity
[22] = tested on: CCRF-CEM; experiment: Cytotoxicity against human CCRF-CEM cells assessed as cell growth at 10 uM after 48 hrs by MTT assay; format: functional; conditions: read-out: Activity
[23] = tested on: HL-60(TB); experiment: Cytotoxicity against human HL-60(TB) cells assessed as cell growth at 10 uM after 48 hrs by MTT assay; format: functional; conditions: HL-60, 48 h, read-out: Activity
[24] = tested on: MOLT-4; experiment: Cytotoxicity against human MOLT4 cells assessed as cell growth at 10 uM after 48 hrs by MTT assay; format: functional; conditions: MOLT-4, 48 h, read-out: Activity
[25] = tested on: RPMI-8226; experiment: Cytotoxicity against human RPMI8226 cells assessed as cell growth at 10 uM after 48 hrs by MTT assay; format: functional; conditions: RPMI-8226, 48 h, read-out: Activity
[26] = tested on: SR; experiment: Cytotoxicity against human SR cells assessed as cell growth at 10 uM after 48 hrs by MTT assay; format: functional; conditions: read-out: Activity
[27] = tested on: SK-MEL-28; experiment: Cytotoxicity against human SK-MEL-28 cells assessed as cell growth at 10 uM after 48 hrs by MTT assay; format: functional; conditions: SK-MEL-28, 48 h, read-out: Activity
[28] = tested on: SK-MEL-5; experiment: Cytotoxicity against human SK-MEL-5 cells assessed as cell growth at 10 uM after 48 hrs by MTT assay; format: functional; conditions: SK-MEL-5, 48 h, read-out: Activity
[29] = tested on: SF-295; experiment: Cytotoxicity against human SF295 cells assessed as cell growth at 10 uM after 48 hrs by MTT assay; format: functional; conditions: SF-295, 48 h, read-out: Activity
[30] = tested on: SF-539; experiment: Cytotoxicity against human SF539 cells assessed as cell growth at 10 uM after 48 hrs by MTT assay; format: functional; conditions: SF-539, 48 h, read-out: Activity
[31] = tested on: SNB-75; experiment: Cytotoxicity against human SNB75 cells assessed as cell growth at 10 uM after 48 hrs by MTT assay; format: functional; conditions: SNB-75, 48 h, read-out: Activity
[32] = biological target: Glycogen synthase kinase-3 beta (Homo sapiens) (UniProt P49841); experiment: Inhibition of human GSK3-beta assessed as residual enzyme activity at 0.01 uM after 40 mins by scintillation counting
[33] = biological target: Cyclin-dependent kinase 1/cyclin B1 (Homo sapiens) (UniProt P06493+P14635); experiment: Inhibition of human CDK1/Cyclin B assessed as residual enzyme activity at 0.3 uM after 40 mins by scintillation counting; format: protein-complex assay
[34] = biological target: T1, Cyclin-dependent kinase 2/cyclin A (Homo sapiens) (UniProt P24941+P20248+P78396); experiment: Inhibition of human CDK2/Cyclin A assessed as residual enzyme activity at 0.3 uM after 40 mins by scintillation counting; format: protein-complex assay
[35] = biological target: T1, Cyclin-dependent kinase 2/cyclin A (Homo sapiens); experiment: Inhibition of human CDK2/Cyclin A assessed as residual enzyme activity at 3 uM after 40 mins by scintillation counting; format: protein-complex assay
[36] = biological target: Cyclin-dependent kinase 5/CDK5 activator 1 (Homo sapiens) (UniProt Q00535+Q15078); experiment: Inhibition of human CDK5/p35 assessed as residual enzyme activity at 3 uM after 40 mins by scintillation counting; format: protein-complex assay
[37] = tested on: UACC-257; experiment: Cytotoxicity against human UACC257 cells assessed as cell growth at 0.1 uM after 1 to 11 days by MTT assay; format: functional; conditions: read-out: Activity
[38] = tested on: NCI-H460; experiment: Cytotoxicity against human NCI-H460 cells assessed as cell growth at 0.1 uM after 1 to 11 days by MTT assay; format: functional; conditions: read-out: Activity
[39] = tested on: HOP-62; experiment: Cytotoxicity against human HOP62 cells assessed as cell growth at 1 uM after 1 to 11 days by MTT assay; format: functional; conditions: read-out: Activity

Sequence of Glycogen synthase kinase-3 beta (Homo sapiens) (P49841 whole entry, looked up): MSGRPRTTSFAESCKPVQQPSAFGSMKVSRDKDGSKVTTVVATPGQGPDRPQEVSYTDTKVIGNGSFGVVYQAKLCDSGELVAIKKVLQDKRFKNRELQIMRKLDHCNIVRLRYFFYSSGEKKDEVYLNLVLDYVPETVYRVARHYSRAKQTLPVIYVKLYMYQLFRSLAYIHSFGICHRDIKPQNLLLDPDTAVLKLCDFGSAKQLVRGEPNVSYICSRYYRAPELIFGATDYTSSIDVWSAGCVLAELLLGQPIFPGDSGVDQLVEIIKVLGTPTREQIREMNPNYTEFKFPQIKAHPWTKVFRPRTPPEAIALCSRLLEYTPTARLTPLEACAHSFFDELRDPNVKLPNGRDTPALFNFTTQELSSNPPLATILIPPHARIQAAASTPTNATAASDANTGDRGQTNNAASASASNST
Sequence of Cyclin-dependent kinase 1/cyclin B1 (Homo sapiens) (P06493 whole entry, looked up): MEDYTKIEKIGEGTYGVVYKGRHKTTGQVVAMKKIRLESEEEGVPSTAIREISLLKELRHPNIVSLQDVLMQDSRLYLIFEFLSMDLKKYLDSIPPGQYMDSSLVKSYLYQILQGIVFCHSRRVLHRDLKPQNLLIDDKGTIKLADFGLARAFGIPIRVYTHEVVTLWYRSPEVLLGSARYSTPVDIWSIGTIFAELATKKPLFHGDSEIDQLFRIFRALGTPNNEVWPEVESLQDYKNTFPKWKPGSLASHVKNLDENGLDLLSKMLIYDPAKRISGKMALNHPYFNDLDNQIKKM
Sequence of Cyclin-dependent kinase 1/cyclin B1 (Homo sapiens) (P14635 whole entry, looked up): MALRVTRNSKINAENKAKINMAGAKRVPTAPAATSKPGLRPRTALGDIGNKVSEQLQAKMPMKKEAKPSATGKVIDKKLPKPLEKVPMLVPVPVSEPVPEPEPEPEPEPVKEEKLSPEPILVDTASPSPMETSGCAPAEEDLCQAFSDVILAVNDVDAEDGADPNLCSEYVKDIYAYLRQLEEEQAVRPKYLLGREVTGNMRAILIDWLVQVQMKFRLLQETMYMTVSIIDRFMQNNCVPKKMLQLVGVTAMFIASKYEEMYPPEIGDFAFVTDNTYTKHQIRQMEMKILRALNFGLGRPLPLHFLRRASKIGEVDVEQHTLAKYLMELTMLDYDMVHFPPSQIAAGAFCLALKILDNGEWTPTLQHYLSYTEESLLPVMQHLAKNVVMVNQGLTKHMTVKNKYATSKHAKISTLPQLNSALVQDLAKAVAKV

SMILES | growth at 10 µM [1] [%] | growth at 10 µM [2] [%] | growth at 10 µM [3] [%] | growth at 10 µM [10] [%] | growth at 10 µM [11] [%] | growth at 10 µM [12] [%] | growth at 10 µM [13] [%] | growth at 10 µM [14] [%] | growth at 10 µM [15] [%] | growth at 10 µM [16] [%] | growth at 10 µM [17] [%] | growth at 10 µM [18] [%] | growth at 10 µM [19] [%] | growth at 10 µM [20] [%] | growth at 10 µM [21] [%] | growth at 10 µM [22] [%] | growth at 10 µM [23] [%] | growth at 10 µM [24] [%] | growth at 10 µM [25] [%] | growth at 10 µM [26] [%] | other results
O=C1Nc2ncccc2/C1=C1/Nc2ccccc2/C1=N\O | 43.4 | -11.7 | 40.3 | 35.5 | 54 | 30.7 | 52.2 | 36.9 | 87.8 | 72.6 | 71.8 | 49.1 | 69.3 | 87.7 | 79.6 | 84.8 | 125 | 40.8 | 69.5 | 32.8 | growth at 1 µM [4]: 93%; growth at 1 µM [5]: 100%; growth at 100 µM [6]: 46%; growth at 1000 µM [7]: 25%; growth at 1000 µM [8]: 26%; growth at 1000 µM [9]: 50%; growth at 10 µM [27]: 75.3%; growth at 10 µM [28]: 72.3%; growth at 10 µM [29]: 94.9%; growth at 10 µM [30]: 50.3%; growth at 10 µM [31]: 31.2%; Activity [32]: 88%; Activity [33]: 105%; Activity [34]: 100%; Activity [35]: 76%; Activity [36]: 19%; growth at 0.1 µM [37]: 98%; growth at 0.1 µM [38]: 110%; growth at 1 µM [39]: 100%
O=C1Nc2ncccc2/C1=C1/Nc2ccccc2C1=O | 84.1 | 117 | 56.4 | 30.6 | 96.9 | 79.7 | 47.7 | 48.5 | 41 | 92.8 | 82.7 | 48.4 | 75.8 | 77.7 | 84.4 | 88.4 | 173 | 85.3 | 75.4 | 82.5 | growth at 10 µM [27]: 123%; growth at 10 µM [28]: 75.4%; growth at 10 µM [29]: 102%; growth at 10 µM [30]: 90.9%; growth at 10 µM [31]: 68.1%; Activity [32]: 96%; Activity [33]: 88%; Activity [34]: 99%; Activity [35]: 64%; Activity [36]: 39%
CN1C(=O)/C(=C2/C(=O)N(C)c3ncccc32)c2cccnc21 | 94.5 | 120 | 94.4 | 98.4 | 108 | 96.5 | 121 | 90.4 | 114 | 101 | 85.5 | 109 | 132 | 86.7 | 88.8 | 89.4 | 183 | 127 | 105 | 124 | growth at 10 µM [27]: 106%; growth at 10 µM [28]: 102%; growth at 10 µM [29]: 98.9%; growth at 10 µM [30]: 117%; growth at 10 µM [31]: 75.5%; Activity [32]: 94%; Activity [33]: 88%; Activity [34]: 114%; Activity [35]: 109%; Activity [36]: 84%
